Experimental data published in patent US20080145858A1, “DETECTION AND IDENTIFICATION OF TOXICANTS BY MEASUREMENT OF GENE […]” (priority 2003, published 2008).

Tested on: Xenopus laevis embryos
Assay: Embryonic morphology after PMA treatment
Format: in vivo
Protocol: Embryos were sorted for successful cleavage to 2 cells (1.5 hours after fertilization), split into groups for subsequent treatment (triplicate treatments per each experimental group) and visually monitored for normal embryonic morphology. Rates of abnormal morphology were recorded for each group. Embryos at stage 8 were obtained after incubation of the fertilized embryos at 23° C. for 5 hours. PMA (100 ng/ml) or DMSO (0.01%, solvent used to dissolve PMA) was added to the embryos 2 hours after fertilization. […] Embryos at stage 15 were obtained after incubation of the fertilized embryos at 18° C. for 30 hours (the condition produced stage 15 embryos identical to embryos obtained at 23° C. for 10 hours). PMA or DMSO was added to the embryos 21 hours after fertilization.

Question: What does the source list for `CCCCCCCCCCCCCC(=O)O[C@@H]1[C@@H](C)[C@@]2(O)[C@@H](C=C(CO)C[C@]3(O)C(=O)C(C)=C[C@@H]23)[C@@H]2C(C)(C)[C@]12OC(C)=O` [PMA, phorbol 12-myristate 12-acetate]?
Answer: embryo morphology / developmental stage reached (100 ng/ml added 2 hours after fertilization, 23° C. for 5 hours, untreated progressed to blastula): remained in a pre-blastula stage; embryo morphology / developmental stage reached (added 21 hours after fertilization, 18° C. for 30 hours, untreated showed typical neurula): in a pre-neurula stage
